This data set concerns users suffering with headaches. The data set can be described thus: Inhalation of pure AITC vapor through the nostrils by users with headaches. In kind it is in vivo. Here is the method: In the present invention AITC is taken in to its purest form. To treat headache instantly, Purest AITC needs to be inhaled deeply for up to 5 seconds in each nostril. If it is taken correctly, due to its pungency and potency, the vapor of AITC will instantly felt inside on the top of the crown of the user's head.
If AITC is inhaled properly and as directed, most users will be out of irritation in less than 2 minutes.
In current studies we have used pure AITC in above mentioned quantity into small dark thick glass vials with aluminum seal and tight screw caps. The bottles are also very small mouth.

Molecules are shown by their SMILES.

On to `C=CCN=C=S` [AITC, Allyl isothiocyanate], for which, where the note is “AITC inhaled properly and as directed, most users”, the “time until users are out of irritation after inhalation” value is reported as “less than 2 minutes”. In addition, the “nasal mucus, sinus pressure and sinus headache” value (inhalation) was “relives sinusitis pressure and sinus headaches”. Besides, for the setting “inhalation remedy”, the “addiction or rebound headaches” value is “does not lead to addiction or rebound headaches” and the side effects entry was “does not have any side effects”. Moreover, the headache relief entry (inhalation, users with headaches) is on record as “headache is also relieved”. Also, the “irritation and lachrymal effect on deep inhalation” value (inhaled deeply) was “instantly irritated and most likely get tears from eyes”. For the same compound, the “natural versus synthetic AITC in treating headaches” value (natural (from mustard seeds, horseradish or wasabi) vs synthetic (99.9% pure)) is given as “almost same result in treating headaches”. The “time to relief from headache pain” value (pure AITC inhaled as directed, most users suffering with headaches) is listed as “relived from pain in seconds in most cases or up to couple of minutes”.

Source of the values: patent US20200138750A1, “Use of Mustard Seed Oil (Allyl Isothiocyanate) to relieve headache pain” (priority 2018, published 2020).
